Legend:
Sphaerotheca fuliginea = test: In vivo preventive test on Sphaerotheca fuliginea (powdery mildew on cucurbits); details: 500 ppm of active ingredient, gherkin plants, 12 days after contamination
How it was run: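 Gherkin plants ("Vert petit de Paris") grown at 24 °C were sprayed at cotyledon stage Z11; controls received acetone/tween/DMSO/water without active. Inoculation 24 h later by spraying cotyledons with 100 000 spores/mL. Efficacy (%) graded 12 days post-contamination versus controls.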

Uromyces appendiculatus = test: In vivo preventive test on Uromyces appendiculatus (bean rust); details: 500 ppm of active ingredient; bean plants; 11 days after contamination
How it was run: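 Saxa bean plants at 2-leaf stage, grown at 24° C., sprayed preventively with compound; 24 h later inoculated with U. appendiculatus spores (150 000 spores per mL). Percent efficacy graded 11 days after inoculation versus solvent-treated controls.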

Pyrenophora teres = test: In vivo preventive test on Pyrenophora teres (barley); details: 500 ppm of active ingredient; barley plants; 14 days after contamination
Protocol: In Vivo Preventive Test on Pyrenophora teres (Barley) […] Barley plants (“Plaisant” variety), sown in starter cups on a 50/50 peat soil pozzolana substrate and grown at 22° C., are treated at the 1 leaf stage (10 cm height) by spraying with the active ingredient prepared as described above. Plants, used as controls, are treated with the mixture of acetone/tween/DMSO/water not containing the active material. After 24 hours, the plants are contaminated by spraying the leaves with an aqueous suspension of Pyrenophora teres spores (12 000 spores per mL). The spores are collected from a 12-day-old culture. […] Grading (% of efficacy) is carried out 14 days after the contamination, in comparison with the control plants.

[1] = log P by HPLC on a reversed-phase column (C 18), EEC Directive 79/831 Annex V.A8; format: physicochemical; details: for logP: HPLC on reversed-phase column (C 18), 40° C., 0.1% aqueous formic acid and acetonitrile, linear gradient 10% to 90% acetonitrile
How it was run: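 Compounds are eluted at 40° C using 0.1% aqueous formic acid and acetonitrile in a linear gradient from 10% to 90% acetonitrile. Unbranched alkan-2-ones bearing 3 to 16 carbons with known log P serve as calibrants. Each log P is interpolated linearly from retention times of the two bracketing alkanones.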

Leptosphaeria nodorum = test: In vivo preventive test on Leptosphaeria nodorum (wheat); details: 500 ppm of active ingredient, evaluated 8 days after inoculation
Protocol: In Vivo Preventive Test on Leptosphaeria nodorum Test (Wheat) [table] To produce a suitable preparation of active compound, 1 part by weight of active compound or active compound combination is mixed with the stated amounts of solvent and emulsifier, and the concentrate is diluted with water to the desired concentration. To test for preventive activity, young plants are sprayed with the preparation of active compound or active compound combination at the stated rate of application. After the spray coating has been dried, the plants are sprayed with a spore suspension of Leptosphaeria nodorum. The plants remain for 48 hours in an incubation cabinet at approximately 20° C. and a relative atmospheric humidity of approximately 100%.

Puccinia recondita = test: In vivo preventive test on Puccinia recondita (brown rust on wheat); details: 500 ppm of active ingredient; wheat plants; 12 days after contamination
How it was run: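 Wheat plants ("Scipion") at 1-leaf stage, grown at 22° C, were sprayed with compound, then inoculated 24 h later with Puccinia recondita spores (100 000 spores per mL). Efficacy (%) graded 12 days after inoculation relative to solvent-treated controls.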

[2] = system: Blumeria graminis f.sp. hordei; test: In vivo preventive test on Blumeria graminis (barley); details: 500 ppm of active ingredient, evaluated 7 days after inoculation
Protocol: In Vivo Preventive Test on Blumeria graminis (Barley) [table] To produce a suitable preparation of active compound, 1 part by weight of active compound or active compound combination is mixed with the stated amounts of solvent and emulsifier, and the concentrate is diluted with water to the desired concentration. To test for preventive activity, young plants are sprayed with the preparation of active compound or active compound combination at the stated rate of application. After the spray coating has been dried, the plants are dusted with spores of Blumeria graminis f.sp. hordei.

Venturia inaequalis = test: In vivo preventive test on Venturia inaequalis (apples); details: 100 ppm of active ingredient, evaluated 10 days after inoculation
Protocol: In Vivo Preventive Test on Venturia inaequalis (apples) [table] To produce a suitable preparation of active compound, 1 part by weight of active compound is mixed with the stated amounts of solvent and emulsifier, and the concentrate is diluted with water to the desired concentration. To test for preventive activity, young plants are sprayed with the preparation of active compound at the stated rate of application. After the spray coating has dried on, the plants are inoculated with an aqueous conidia suspension of the causal agent of apple scab (Venturia inaequalis) and then remain for 1 day in an incubation cabinet at approximately 20° C. and a relative atmospheric humidity of 100%. The plants are then placed in a greenhouse at approximately 21° C. and a relative atmospheric humidity of approximately 90%.

Septoria tritici = test: In vivo preventive test on Septoria tritici (wheat); details: 500 ppm of active ingredient; wheat plants; 24 days after contamination
How it was run: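 Scipion wheat grown at 22° C, sprayed at 1-leaf stage (10 cm); controls received acetone/tween/DMSO/water without active. Inoculated 24 h later with S. tritici spores (500 000/mL), held 72 h at 18° C, 100% RH, then 21 days at 90% RH. % efficacy vs controls scored 24 days post-inoculation.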

Alternaria brassicae = test: In vivo preventive test on Alternaria brassicae (leaf spot on radish); details: 500 ppm of active ingredient; radish plants; 6 days after contamination
Protocol: In Vivo Preventive Test on Alternaria brassicae (Leaf Spot on Radish) […] Radish plants (“Pernod Clair” variety), sown in starter cups on a 50/50 peat soil pozzolana substrate and grown at 17° C., are treated at the cotyledon stage by spraying with the active ingredient prepared as described above. Plants, used as controls, are treated with the mixture of acetone/tween/DMSO/water not containing the active material. After 24 hours, the plants are contaminated by spraying the cotyledons with an aqueous suspension of Alternaria brassicae spores (50 000 spores per mL). The spores are collected from a 15-day-old culture. The contaminated radish plants are incubated at 20° C. and at 100% relative humidity. Grading (% of efficacy) is carried out 6 days after the contamination, in comparison with the control plants.

Botrytis cinerea = test: In vivo preventive test on Botrytis cinerea (grey mould); details: 500 ppm of active ingredient; gherkin plants; 4 to 5 days after contamination
How it was run: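 Gherkin plants at cotyledon stage Z11 were sprayed with compound, then inoculated 24 h later with Botrytis cinerea spores (50 000 spores per mL in nutrient solution). Plants were kept at 17° C and 90% RH, and percent efficacy versus solvent-treated controls was graded 4 to 5 days after contamination.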

Pyricularia oryzae = format: in vivo; details: 500 ppm of active ingredient; rice plants; 6 days after contamination

| SMILES | Efficacy (Sphaerotheca fuliginea) [%] | Efficacy (Uromyces appendiculatus) [%] | Efficacy (Pyrenophora teres) [%] | logP [1] | Efficacy (Leptosphaeria nodorum) [%] | Efficacy (Puccinia recondita) [%] | Efficacy [2] [%] | Efficacy (Venturia inaequalis) [%] | Efficacy (Septoria tritici) [%] | pest or weed control at 500 ppm (Sphaerotheca fuliginea; Podosphaera fuliginea, 288 h, read-out: Efficacy) [%] | chromatographic logP ([1]; logP) | Efficacy (Alternaria brassicae) [%] | Efficacy (Botrytis cinerea) [%] | Efficacy (Pyricularia oryzae) [%] |
| --- | --- | --- | --- | --- | --- | --- | --- | --- | --- | --- | --- | --- | --- | --- |
| Cn1nc(C(F)F)c(C(=O)N(Cc2ccccc2C2(C)CO2)C2CC2)c1F (stereo not shown) [I.3] | 100 | 100 | 88 | 2.68 | 92 | 94 | 100 | 96 | 100 | – | – | – | – | – |
| Cn1nc(C(F)F)c(C(=O)N(Cc2cc(Cl)ccc2C2(C)CO2)C2CC2)c1F (stereo not shown) [I.4, N-[5-chloro-2-(2-methyloxiran-2-yl)benzyl]-N-cyclopropyl-3-(difluoromethyl)-5-fluoro-1-methyl-1H-pyrazole-4-carboxamide] | – | 100 | 96 | – | 80 | 98 | 94 | 100 | 100 | 100 | 3.19 | – | – | – |
| Cc1csc(-c2ccc(C(C)C)c(CN(C(=O)c3c(C(F)F)nn(C)c3F)C3CC3)c2)c1 [I.106] | 100 | – | 93 | 4.93 | – | – | – | – | 80 | – | – | 100 | 80 | 80 |
| COc1ccsc1-c1ccc(F)cc1CN(C(=O)c1c(C(F)F)nn(C)c1F)C1CC1 [I.119] | 100 | 100 | 71 | 3.63 | – | 100 | – | – | 90 | – | – | – | – | 70 |
| CC(C)c1ccc(-c2coc3ccccc23)cc1CN(C(=O)c1c(C(F)F)nn(C)c1F)C1CC1 [I.132] | 100 | 77 | 88 | 4.90 | – | 83 | – | – | 100 | – | – | 97 | 99 | 80 |
| Cn1nc(C(F)F)c(C(=O)N(Cc2ccccc2-c2ccc(Cl)s2)C2CC2)c1F [I.139] | – | 100 | 100 | 4.32 | – | 94 | – | 100 | 96 | – | – | 73 | 100 | – |
